Patent US8470352B2, “Magnesium compositions and uses thereof for metabolic disorders” (Magceutics, Inc., priority 2007, dated 2013)

Assays:
[1] = Magnesium absorption rate in rats (urine and feces magnesium by ICP-AES, linear regression); settings: Examples 5 and 6, gluconate in skim milk or 5 weight percent lactose water, chloride and threonate in water; for magnesium absorption rate at higher dosage: high magnesium dosage
Description: Fifty 3-month old, male Sprague Dawley (SD) rats were divided into five groups of ten rats. Rats of this age and older are considered adult. Each of the rats was placed in a separate metabolic cage equipped with urine- and feces-collecting wells. All of the rats were maintained in a temperature-controlled room (22° C. to 25° C.) with a dark period from 08:00 pm to 08:00 am daily. From day 1 through day 3, each rat was fed daily 15 g of magnesium-free food and de-ionized water. […] The medium was skim milk for Composition 1 and Group 1, milk prepared from powdered milk, by diluting the powdered milk with water to obtain a composition like that of skim milk, for Composition 2 and Group 2, 1% milk cream in water for Composition 3 and Group 3, water comprising 5 weight percent lactose for Composition 4 and Group 4, and water for the Control Composition and Control Group. […] From day 11 through day 12, each rat was fed daily 15 g of magnesium-free food and de-ionized water.
From day 4 through day 10, urine from each rat was collected daily. The collected urine from each rat was then pooled together and the total volume of the pooled urine from each rat was recorded. The pooled urine from each rat, in an amount of […], was analyzed for magnesium content using an inductively coupled plasma-atomic emission spectrometer (ICP-AES). From day 5 to day 11, feces from each rat were collected daily. The collected feces from each rat were pooled together and the pooled feces were weighed and homogenized. The pooled feces from each rat, in an amount of 0.5 g, were analyzed for magnesium content using an ICP-AES.
A formula was used to calculate a magnesium absorption rate for each rat. The formula used was Y=AX−B, wherein X was the average total daily magnesium intake, Y was the average net daily amount of magnesium absorbed, as calculated by X minus the average daily amount of magnesium excreted from feces, B was the average daily amount of magnesium excreted from feces when the magnesium intake was zero, and the slope A represented the magnesium absorption rate. […]

[2] = test system: diabetic patients; settings: nearly 1 g of magnesium daily for 1 month; cited from earlier work
[3] = test system: young (9-month old) and aged (25-month old) rats; settings: food containing 2% magnesium oxide for 8 days; gain transient; cited from earlier work
[4] = in vivo; cited from earlier work
[5] = test system: rats (young, aging, aged); settings: p<0.05
Description: Twenty 2-month old, male Sprague Dawley (SD) rats were housed in a temperature-controlled room (22° C. to 25° C.) with a dark period from 08:00 pm to 08:00 am daily. […] Over 7 days before the training and trial period began, each rat was handled and habituated to the maze and to Kellogg's Froot Loop cereal.
Each rat underwent a test of one trial, followed by an interval of 10-minutes, followed by another trial, and so on, for a total of 6 trials in one day. In each trial, each rat went through a sample run in the maze, followed by an interval of 15 seconds, followed by a choice run in the maze. […]
On the first day (designated day 0) of the feeding of the two groups, as just described, each rat underwent a preliminary test of one trial, followed by an interval of 10 minutes, followed by another trial, and so on, for a total of 4 trials in one day. […] In this preliminary test, the choice accuracy level, or ratio of correct choices made, co, to the number of number of trials in the test, no, was determined for each rat. […]
Three groups of animals (young, aging, and magnesium-treated aging rats) were used. […] Spatial working memory was assessed using a T-maze non-matching-to-place task. […] Spatial working memory was first assessed on an elevated T-maze. […]

[6] = test system: rats (young, aging); test: Novel object recognition test in rats; format: in vivo, Sprague-Dawley rats
Description: In this example, the effect of magnesium supplementation on recognition memory was tested. Three groups of rats were used in these experiments: 1) young rats (three months old); aging rats (12-14 months old), and; 3) magnesium-treated aging rats (12-14 months old, diet supplemented with 6 mg/kg MgCl2 from 8 months of age). We used experimentally naive, female, Sprague-Dawley young […], aging (12-14 month old) and […] rats (Charles River) at the beginning of the behavior experiments. They were housed two per cage with continuous access to food and water under a 12:12 light-dark cycle, with light onset at 8:00 a.m. […] All experiments involving animals were approved by the Massachusetts Institute of Technology's and Tsinghua University Committees on Animal Care.
The three groups of rats were tested for recognition memory using an object recognition test with a single exposure to the object during training. The task is based on the natural tendency of rodents to explore new objects and tests the animals' memory capacity for distinguishing novel versus familiar objects.
Briefly, the rats were first individually habituated to the personnel and then to open-field arena during 2 weeks. […] The retention intervals were 10 min and 24 hours. Objects were cleaned thoroughly between trials with 20% ethanol solution to ensure the absence of olfactory cues. The particular objects for a given trial were randomly determined, but each object was used for only one trial per rat. Memory of the familiar object is associated with increased exploration of the new object and an exploration index (% correct) is calculated as new object inspection time/30.
In this example, the effect of magnesium supplementation on memory consolidation was studied. […]
Briefly, the rats were first individually habituated to the personnel and then to open-field arena during 2 weeks. […] The particular objects for a given trial were randomly determined, but each object was used for only one trial per rat. […]

[7] = test system: mice genetically altered to present symptoms of Alzheimer's disease (AD); test: Modified Morris water maze test in AD mice; format: in vivo; settings: AD mice aged 13 months; FIG. 16 panels A and B
Description: Another group, the control group, of 10 mice that were genetically altered to present symptoms of AD were fed a Control Diet, a diet of normal solid food and water, for 30 days.
The pool used was a pool of water in a circular metal tank (150 cm in diameter and 50 cm in depth) having a water height of 30 cm and a water temperature that was maintained at ˜22° C. The pool was placed in a moderately lit area and surrounded by a black curtain. An acrylic platform (15 cm in diameter) was placed 2 cm below the surface of the water in the middle of one quadrant of the pool, equidistant from the center and the edge of the pool. Outside the pool, a cue was placed so as to be visible to a mouse in the maze, allowing a mouse to use it as a landmark for spatial orientation. The cue remained unchanged throughout the test period.
On the first day of the training and testing period, the water in the pool was transparent, such that the platform was visible. Each mouse was trained to swim towards the platform and to stand on the platform so as not to be submerged in the pool. […] The amount of time the mouse took to find the platform, referred to as “escape latency,” was recorded for each trial.
On the second day of the training and testing period, a small quantity of milk was added to the water in the pool, such that the pool was opaque and the platform was no longer visible. […]

magnesium gluconate
magnesium absorption rate at higher dosage [1]: suitably close to those associated with the lower dosage compositions

[O]=[Mg] [magnesium oxide]
metabolic control [2]: only minor improvement
cognitive function [3]: some sign of improvement
magnesium bioavailability, or absorption rate in the human body [4]: very low

[Cl-].[Cl-].[Mg+2] [magnesium chloride]
magnesium absorption rate at higher dosage [1]: less desirable
magnesium absorption rate at relatively low dosage ([1]; low magnesium dosage): suitable, but lower
learning in T-maze non-matching-to-place task, 15 sec delay ([5]; 6 mg/kg MgCl2, FIG. 10 left panel): performed significantly better from their first trials
spatial working memory at 2 and 5 min delays ([5]; 6 mg/kg MgCl2, FIG. 10 right panel): significantly enhanced the performance of the aging rats
novel object exploration preference, 10 minute retention interval ([6]; aging rats (12-14 months old), diet supplemented with 6 mg/kg MgCl2 from 8 months of age, single training, FIG. 8, P<0.0001): preferentially explored the novel object to the same extent as young rats
novel object discrimination after 24 hours ([6]; aging rats, 6 mg/kg MgCl2, single training): lose there ability to distinguish novel versus familiar objects
preference for the novel object, 24-hour retention interval after spaced training ([6]; aging rats, 6 mg/kg MgCl2, two training sessions, FIG. 9): retained a high level of preference

CC12CC3CC(C)(C1)CC(N)(C3)C2 [memantine]
reduction of the effects of AD on learning capacity, comparison of anti-AD drugs [7]: better at reducing the effects of AD on learning capacity than aricept
